Data: patent EP2241312A1, “Use of compositions comprising urea for treating microbial infections” (ISDIN S.A., priority 2009, dated 2010)
Like-named read-outs stand apart in the source and are kept apart here.

What was measured:
Experiment in all cases: cells
Type in all cases: cell-based, human
HBD1 = conditions: for fold induction at 10000 µM: Homo sapiens, Keratinocyte; for relative gene expression level HBD1: primary keratinocytes, 10000 µM
Protocol: (§1) Primary human epidermal keratinocytes were prepared from neonatal foreskin as described previously (Grether-Beck et al, 1996, 2000, 2003, 2005, 2008) and maintained in culture under serum free conditions using a defined keratinocyte growth medium Keratinocyte SFM (Invitrogen, Heidelberg, Germany) supplemented with bovine pituitary extract (Invitrogen, Heidelberg, Germany) and recombinant epidermal growth factor (Invitrogen, Heidelberg, Germany). Cells were propagated up to passage 2 or 3 at 37°C and 5 % CO2 (Grether-Beck et al, 1996, 2000, 2003, 2005, 2008). For induction of differentiation NHEKs were seeded in 6well plates and grown up to confluence.
(§2) For assessment of gene expression total RNA was extracted from frozen biopsies (Ø 4 mm) and gene expression measured by semiquantitative RT-PCR. For isolation of RNA from frozen skin biopsies, 600 µl lysis buffer from PeqGold Total RNA Kit (PeqLab, Erlangen, Germany) were added and the samples were disrupted in a MixerMill MM300 (Retsch, Haan, Germany) three times for 3 min with 30 Hz. 50 ng total RNA were used for cDNA synthesis. PCR reactions were performed in an Opticon 1 (MJ Research, Waltham, MA, USA) using Sybr QPCR Supermix w. Rox (Invitrogen, Karlsruhe, Germany). PCR conditions were as follows: activation of hot start taq polymerase 94° C 15 minutes; denaturation 95° C, 20 seconds; annealing, 55° C, 20 seconds; extension, 72° C 30 seconds. Each sample was subjected to PCR in double using the appropriate primer pairs for 45-50 cycles. For comparison of relative expression in real time PCR control cells and treated cells the 2 (-della delta C(T)) method was used (Livak KJ, and Schmittgen TD. Analysis of relative gene expression data using real time quantitative PCR and the 2 (-delta delta C(T)) method. Methods 2001: 25: 402 - 408). mRNA expression of the genes of interest was shown as fold induction as compared to untreated skin samples of the same volunteer. Table 1: Primer pairs for real time PCR
(§3) For determination of relative gene expression in real time PCT the 2(-delta delta C(T))-method was used as described in Livak and Schmittgen (2001) "Analysis of relative gene expression data using real time quantitative PCR and the 2 (-delta delta C(T))-method" Methods 25: 401-408. For statistical analysis, the experimental data were analyzed using the Wilcoxon signed-rank test.
(§4) HNKs were stimulated with 10mM urea for the indicated time points (3h, 6h, 12h, 24h) and processed for RNA analysis (1). Data are the result of a set of three samples for the control and two samples in parallel for the urea stimulated ones. Table 2 indicates the relative gene expression levels after stimulation with urea as compared to untreated contol cells. […] Table 3 indicates the data depicted in Figure 2. [formula] Table 2: Expression of antimicrobial peptides in human keratinocytes after stimulation with urea at different time points after induction.

HBD2 = conditions: for fold induction at 10000 µM: Homo sapiens, Keratinocyte
Protocol: as §1, §2, §3, §4

Humpsor = conditions: for fold induction at 10000 µM: Homo sapiens, Keratinocyte
Protocol: as §1, §2, §3, §4

NC(N)=O [urea]
fold induction at 10000 µM (HBD1; 3 h, read-out: relative gene expression level HBD1, 10mM urea, 3h, compared to untreated control cells): 3.1
fold induction at 10000 µM (HBD1; 6 h, read-out: relative gene expression level HBD1, 10mM urea, 6h, compared to untreated control cells): 1.3
fold induction at 10000 µM (HBD1; 12 h, read-out: relative gene expression level HBD1, 10mM urea, 12h, compared to untreated control cells): 1.6
fold induction at 10000 µM (HBD1; 24 h, read-out: relative gene expression level HBD1, 10mM urea, 24h, compared to untreated control cells): 1.6
relative gene expression level HBD1 (HBD1; 3 h): 3.000
relative gene expression level HBD1 (HBD1; 6 h): 1.5000
fold induction at 10000 µM (HBD2; 3 h, read-out: relative gene expression level HBD2, 10mM urea, 3h, compared to untreated control cells): 1.8
fold induction at 10000 µM (HBD2; 6 h, read-out: relative gene expression level HBD2, 10mM urea, 6h, compared to untreated control cells): 1.1
fold induction at 10000 µM (HBD2; 12 h, read-out: relative gene expression level HBD2, 10mM urea, 12h, compared to untreated control cells): 1.5
fold induction at 10000 µM (HBD2; 24 h, read-out: relative gene expression level HBD2, 10mM urea, 24h, compared to untreated control cells): 1.6
relative gene expression level HBD2 (HBD2; primary keratinocytes, 3 h, 10000 µM): 1.7000
fold induction at 10000 µM (Humpsor; 3 h, read-out: relative gene expression level Humpsor, 10mM urea, 3h, compared to untreated control cells): 1.9
fold induction at 10000 µM (Humpsor; 6 h, read-out: relative gene expression level Humpsor, 10mM urea, 6h, compared to untreated control cells): 2.6
fold induction at 10000 µM (Humpsor; 24 h, read-out: relative gene expression level Humpsor, 10mM urea, 24h, compared to untreated control cells): 1.5
relative gene expression level Humpsor (Humpsor; primary keratinocytes, 6 h, 10000 µM): 3.1000
